Measured values taken from patent publication US20260108451A1, “COMPOSITIONS FOR THE MANAGEMENT OF HIRSUTISM” (priority 2022, published 2026).

Tested on: Ornithine decarboxylase (ODC)
Assay: Expression of ornithine decarboxylase (ODC) by flow cytometry in dermal papilla cells
Format: cell-based, human
Conditions: Control 26.8%
Experimental: Dermal papilla cells (DPC) were cultured in DMEM medium with 10% FBS and seeded in 96 well tissue culture plate for the test. 24 hrs post seeding, DPC were treated with the test sample Ar-Turmerone at graded concentrations and incubated for 48 hrs in 5% CO2 incubator at 37° C. After 48 hrs the cells were collected from each well. These cells were incubated with Fluorescein isothiocyanate (FITC) labelled Ornithine-de-carboxylase antibody. After being washed with sterile PBS, samples were resuspended in PBS (pH 7.4) and acquired directly on the Flow cytometer. A fluorescence trigger was set on the FITC (FL1) parameter of the gated DPC populations (10,000 events). Percentage decrease of ODC expression in test samples was calculated with respect to un-treated cells (control), (FIG. 1).

NCCCC(N)(C(=O)O)C(F)F (stereo not shown) [Eflornithine]
% Expression of ODC at 100 μg/ml: 11.4%
